Experimental data: US11739101B2, “Bifunctional degraders of hematopoietic progenitor kinase and therapeutic uses thereof” (Nurix Therapeutics, Inc., priority 2020, dated 2023)

Each compound was assayed against T1, HPK1 (Homo sapiens, UniProt Q92918) (assay: HPK1 Cellular HiBiT Degradation Assay). Details: HiBiT-tagged HPK1 Jurkat cells, 24 hours, 10 uM to 0.1 nM; Dmax = 100 minus lowest % HPK1 remaining vs DMSO vehicle.
T1 construct: A HiBiT tag was introduced by CRISPR on the N terminus of HPK1 in Jurkat cells; host or cells: Jurkat (ATCC TIB-152), monoclonal CRISPR HiBiT knock-in line
T1 sequence (Q92918 whole entry): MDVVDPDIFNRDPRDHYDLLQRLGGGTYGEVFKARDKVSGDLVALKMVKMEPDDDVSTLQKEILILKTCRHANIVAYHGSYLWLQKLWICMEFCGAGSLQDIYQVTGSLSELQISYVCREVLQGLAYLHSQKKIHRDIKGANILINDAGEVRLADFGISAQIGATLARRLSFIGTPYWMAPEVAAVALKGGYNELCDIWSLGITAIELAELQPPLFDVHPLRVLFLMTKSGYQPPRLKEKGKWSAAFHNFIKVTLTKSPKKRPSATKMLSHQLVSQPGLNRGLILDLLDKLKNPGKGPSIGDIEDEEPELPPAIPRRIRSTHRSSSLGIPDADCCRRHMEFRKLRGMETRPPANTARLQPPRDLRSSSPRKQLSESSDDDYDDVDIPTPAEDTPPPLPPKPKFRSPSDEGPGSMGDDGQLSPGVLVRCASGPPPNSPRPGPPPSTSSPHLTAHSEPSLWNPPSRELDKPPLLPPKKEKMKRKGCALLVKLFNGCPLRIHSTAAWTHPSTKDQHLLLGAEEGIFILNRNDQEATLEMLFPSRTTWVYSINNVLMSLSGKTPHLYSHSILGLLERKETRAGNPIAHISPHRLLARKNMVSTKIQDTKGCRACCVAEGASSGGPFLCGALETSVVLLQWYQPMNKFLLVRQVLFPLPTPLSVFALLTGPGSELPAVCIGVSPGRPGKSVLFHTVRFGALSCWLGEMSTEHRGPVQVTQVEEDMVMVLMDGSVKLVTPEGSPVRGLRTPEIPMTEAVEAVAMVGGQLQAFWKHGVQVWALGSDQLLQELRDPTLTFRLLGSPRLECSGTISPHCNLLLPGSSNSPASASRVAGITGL
Assay type: cell-based
In short: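 Dmax is derived from four-parameter curves of % HPK1 remaining, as 100 minus the lowest value, normalized to DMSO-treated cells with parental Jurkat background subtracted. HiBiT-HPK1 knock-in Jurkat cells got compound for 24 hours (final 10 uM to 0.1 nM, 11 points) before lytic HiBiT luminescence. Cytotoxicity was checked on parallel CellTiter-Glo plates.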

Dmax | Compound
< 45% | Cc1cc(F)c(Nc2nc(-c3ccc4c(c3)N([C@H]3C[C@@H](N5CCCCC5)C3)C(=O)C43CCN(C(=O)C4CCN(C(=O)[C@H]5CC[C@@H](Nc6cccc7c6C(=O)N(C6CCC(=O)NC6=O)C7=O)CC5)C4)CC3)cc3ncn(C(C)C)c23)cc1C(=O)NC(C)C (stereo partly drawn) [Example 27, 4-fluoro-2-methyl-5-[(6-{2-oxo-1-[(1s,3s)-3-(piperidin-1-yl)cyclobutyl]-1′-[1-[(1S,4S)-4-({2-[2,6-dioxopiperidin-3-yl]-1,3-dioxo-2,3-dihydro-1H-isoindol-4-yl}amino)cyclohexanecarbonyl]pyrrolidine-3-carbonyl]-1,2-dihydrospiro[indole-3,4′-piperidin]-6-yl}-3-(propan-2-yl)-3H-imidazo[4,5-c]pyridin-4-yl)amino]-N-(propan-2-yl)benzamide]
< 45% | Cc1cc(F)c(Nc2nc(-c3ccc4c(c3)N(C3CC(N5CCCCC5)C3)C(=O)C43CCN(C(=O)CN4CC5(CCN(c6ccc7c(c6)C(=O)N(C6CCC(=O)NC6=O)C7=O)CC5)C4)CC3)cc3ncn(C(C)C)c23)cc1C(=O)NC(C)C (stereo not drawn) [Example 28, 5-[(6-{1′-[2-(7-{2-[2,6-dioxopiperidin-3-yl]-1,3-dioxo-2,3-dihydro-1H-isoindol-5-yl}-2,7-diazaspiro[3.5]nonan-2-yl)acetyl]-2-oxo-1-[(1s,3s)-3-(piperidin-1-yl)cyclobutyl]-1,2-dihydrospiro[indole-3,4′-piperidin]-6-yl}-3-(propan-2-yl)-3H-imidazo[4,5-c]pyridin-4-yl)amino]-4-fluoro-2-methyl-N-(propan-2-yl)benzamide]
45 to 65% | Cc1cc(F)c(Nc2nc(-c3ccc4c(c3)N([C@H]3C[C@@H](N5CCCCC5)C3)C(=O)C43CCN(C(=O)CC4CCCN(CC5CCN(c6ccc7c(c6)C(=O)N(C6CCC(=O)NC6=O)C7=O)C5)C4)CC3)cc3ncn(C(C)C)c23)cc1C(=O)NC(C)C (stereo partly drawn) [Example 29, 5-{[6-(1′-{2-[(3S)-1-({1-[2-(2,6-dioxopiperidin-3-yl)-1,3-dioxo-2,3-dihydro-1H-isoindol-5-yl]pyrrolidin-3-yl}Methyl)piperidin-3-yl]acetyl}-2-oxo-1-[(1s,3s)-3-(piperidin-1-yl)cyclobutyl]-1,2-dihydrospiro[indole-3,4′-piperidin]-6-yl)-3-(propan-2-yl)-3H-imidazo[4,5-c]pyridin-4-yl]amino}-4-fluoro-2-methyl-N-(propan-2-yl)benzamide]
< 45% | Cc1cc(F)c(Nc2nc(-c3ccc4c(c3)N([C@H]3C[C@@H](N5CCCCC5)C3)C(=O)C43CCN(C(=O)C4CCN(C(=O)C5CC(Nc6cccc7c6C(=O)N(C6CCC(=O)NC6=O)C7=O)C5)C4)CC3)cc3ncn(C(C)C)c23)cc1C(=O)NC(C)C (stereo partly drawn) [Example 30, 4-fluoro-2-methyl-5-[(6-{2-oxo-1-[(1s,3s)-3-(piperidin-1-yl)cyclobutyl]-1′-[1-[(1s,3s)-3-({2-[2,6-dioxopiperidin-3-yl]-1,3-dioxo-2,3-dihydro-1H-isoindol-4-yl}amino)cyclobutanecarbonyl]pyrrolidine-3-carbonyl]-1,2-dihydrospiro[indole-3,4′-piperidin]-6-yl}-3-(propan-2-yl)-3H-imidazo[4,5-c]pyridin-4-yl)amino]-N-(propan-2-yl)benzamide]
> 65% | Cc1cc(F)c(Nc2nc(-c3ccc4c(c3)N([C@H]3C[C@@H](N5CCCCC5)C3)C(=O)C43CCN(C(=O)CC4CCCN(CC5CCN(c6cccc7c6C(=O)N(C6CCC(=O)NC6=O)C7=O)C5)C4)CC3)cc3ncn(C(C)C)c23)cc1C(=O)NC(C)C (stereo partly drawn) [Example 31, 5-{[6-(1′-{2-[(3S)-1-{[1-{2-[2,6-dioxopiperidin-3-yl]-1,3-dioxo-2,3-dihydro-1H-isoindol-4-yl}pyrrolidin-3-yl]methyl}piperidin-3-yl]acetyl}-2-oxo-1-[(1s,3s)-3-(piperidin-1-yl)cyclobutyl]-1,2-dihydrospiro[indole-3,4′-piperidin]-6-yl)-3-(propan-2-yl)-3H-imidazo[4,5-c]pyridin-4-yl]amino}-4-fluoro-2-methyl-N-(propan-2-yl)benzamide]
< 45% | Cc1cc(F)c(Nc2nc(-c3ccc4c(c3)N([C@H]3C[C@@H](N5CCCCC5)C3)C(=O)C43CCN(C(=O)C4CCN(C(=O)C[C@@H]5CCCN(c6cccc7c6C(=O)N(C6CCC(=O)NC6=O)C7=O)C5)C4)CC3)cc3ncn(C(C)C)c23)cc1C(=O)NC(C)C (stereo partly drawn) [Example 32, 5-({6-[1′-(1-{2-[(3S)-1-{2-[2,6-dioxopiperidin-3-yl]-1,3-dioxo-2,3-dihydro-1H-isoindol-4-yl}piperidin-3-yl]acetyl}pyrrolidine-3-carbonyl)-2-oxo-1-[(1s,3s)-3-(piperidin-1-yl)cyclobutyl]-1,2-dihydrospiro[indole-3,4′-piperidin]-6-yl]-3-(propan-2-yl)-3H-imidazo[4,5-c]pyridin-4-yl}amino)-4-fluoro-2-methyl-N-(propan-2-yl)benzamide]
> 65% | Cc1cc(F)c(Nc2nc(-c3ccc4c(c3)N([C@H]3C[C@@H](N5CCCCC5)C3)C(=O)C43CCN(C(=O)C4CN(CC5CCN(c6cccc7c6C(=O)N(C6CCC(=O)NC6=O)C7=O)CC5)C4)CC3)cc3ncn(C(C)C)c23)cc1C(=O)NC(C)C (stereo partly drawn) [Example 33, 5-{[6-(1′-{1-[(1-{2-[2,6-dioxopiperidin-3-yl]-1,3-dioxo-2,3-dihydro-1H-isoindol-4-yl}piperidin-4-yl)methyl]azetidine-3-carbonyl}-2-oxo-1-[(1s,3s)-3-(piperidin-1-yl)cyclobutyl]-1,2-dihydrospiro[indole-3,4′-piperidin]-6-yl)-3-(propan-2-yl)-3H-imidazo[4,5-c]pyridin-4-yl]amino}-4-fluoro-2-methyl-N-(propan-2-yl)benzamide]
< 45% | Cc1cc(F)c(Nc2nc(-c3ccc4c(c3)N([C@H]3C[C@@H](N5CCCCC5)C3)C(=O)C43CCN(C(=O)C4CN(C(=O)CC5CCN(c6cccc7c6C(=O)N(C6CCC(=O)NC6=O)C7=O)CC5)C4)CC3)cc3ncn(C(C)C)c23)cc1C(=O)NC(C)C (stereo partly drawn) [Example 34, 5-{[6-(1′-{1-[2-(1-{2-[2,6-dioxopiperidin-3-yl]-1,3-dioxo-2,3-dihydro-1H-isoindol-4-yl}piperidin-4-yl)acetyl]azetidine-3-carbonyl}-2-oxo-1-[(1s,3s)-3-(piperidin-1-yl)cyclobutyl]-1,2-dihydrospiro[indole-3,4′-piperidin]-6-yl)-3-(propan-2-yl)-3H-imidazo[4,5-c]pyridin-4-yl]amino}-4-fluoro-2-methyl-N-(propan-2-yl)benzamide]
45 to 65% | Cc1cc(F)c(Nc2nc(-c3ccc4c(c3)N([C@H]3C[C@@H](N5CCCCC5)C3)C(=O)C43CCN(C(=O)C4CN(CC5CCN(c6cccc7c6C(=O)N(C6CCC(=O)NC6=O)C7=O)C5)C4)CC3)cc3ncn(C(C)C)c23)cc1C(=O)NC(C)C (stereo partly drawn) [Example 35, 5-({6-[1′-(1-{[1-{2-[2,6-dioxopiperidin-3-yl]-1,3-dioxo-2,3-dihydro-1H-isoindol-4-yl}pyrrolidin-3-yl]methyl}azetidine-3-carbonyl)-2-oxo-1-[(1s,3s)-3-(piperidin-1-yl)cyclobutyl]-1,2-dihydrospiro[indole-3,4′-piperidin]-6-yl]-3-(propan-2-yl)-3H-imidazo[4,5-c]pyridin-4-yl}amino)-4-fluoro-2-methyl-N-(propan-2-yl)benzamide]
